In assay [1] the test system is wild-type E Coli bacteria isolated from UTI patients. Description: Growth (absorption at 600 nm) and CFU survival of E Coli directly exposed to gentamicin in LB. Format: cell-based, Escherichia coli. How it is done: Furthermore, a sample of each bacteria solution at each different gentamicin concentration was transferred to an agar plate in order to test if the bacteria could give any surviving colony forming units (CFU) on an agar plate. The agar plate incubated overnight at 37° C.
FIG. 3, lower panel, no E Coli bacteria could survive being exposed for 2 hours to concentrations of gentamicin higher than approximately 3.1 μg/ml.
Seven different wild-type E Coli bacteria were isolated from UTI patients and were cultured in Luria Broth (LB) medium under static conditions for 2 days. The method for culturing bacteria is familiar for any skilled person in this field of microbiology. The 2 days old bacteria were diluted 100 fold in fresh sterile LB and added different concentrations of gentamicin or no gentamicin (control). Gentamicin was used as representative antibiotic agent. The bacteria were then allowed to re-grow for 2 hours under optimal growth conditions (shaking and at 37° C.) before the actual concentrations of bacteria cell in the LB were measured by determination of the absorption at 600 nm. The absorption of light reflects the number of bacteria. The number of bacteria was expressed relatively to the control preparation without gentamicin. […] Furthermore, a sample of each bacteria solution at each different gentamicin concentration was transferred to an agar plate in order to test if the bacteria survived and could cause formation of colony forming units (CFU) on an agar plate. The agar plate incubated overnight at 37° C.

Assay [2] has as its system E Coli taken up by human urinary bladder cells (HTB-9). The assay can be described thus: Infection of human bladder cells (HTB-9) with E Coli; surviving intracellular bacteria counted as CFU after gentamicin exposure. The note with it: HTB-9 infected 1 or 2 hours, then 100.0 μg/ml gentamicin for 2 hours. Format: cell-based, Escherichia coli. The method, then: Human bladder cells were cultured and thereafter infected with bacteria. In brief, human urinary bladder cells (HTB-9 from American tissue culture collection) were cultured in culture medium and CO2 incubator at 37° C. until the actual experiment took place. Culturing of human cells is familiar for any skilled person in this field of biology. Next, different concentrations of E Coli were added to the human bladder cells. The bladder cells and the bacteria were allowed to incubate for 1 or 2 hours together before most of the loosely bound and extracellular E Coli cells were removed by washing the bladder cells with PBS (the human bladder cells are attached to the bottom of the cell culture flask). The human bladder cells were exposed to 100.0 μg/ml gentamicin for 2 hours. Gentamicin cannot pass any membrane under normal conditions. As already shown in example 1, this gentamicin treatment kills all bacteria if the gentamicin can get access to the bacteria. Residual gentamicin and dead bacteria were removed again by washing the bladder cells with PBS. A final concentration of 0.1% triton x-100 in phosphate buffered saline was added to destroy all membrane structures of the human cells. […] The degree of expression of bacterial type 1 pili was correlated with the degree of bladder infection as measured by the method explained in example 2. […]

As to gentamicin, the “survival of test bacteria on direct exposure” value in assay [1] (100.0 μg/ml gentamicin, 2 hours) is recorded as “could not survive”. Besides, the “number of bacteria relative to control without gentamicin (absorption at 600 nm)” value in assay [1] (2 hours re-growth with different concentrations of gentamicin) was “reduced at very low concentrations of gentamicin”. Besides, the “gentamicin concentration above which no E Coli bacteria could survive (CFU on agar plate)” value in assay [1] (exposed for 2 hours, LB, 37° C., agar plate overnight) is reported as “approximately 3.1 μg/ml”. The “survival of bacteria taken up by bladder cells after antibiotic treatment (CFU)” value in assay [2] is reported as “able to survive the antibiotic treatment”.

Source of the values: patent US20100197614A1, “TREATMENT OF URINARY TRACT INFECTIONS WITH A MIXTURE OF SAPONIN AND AN ANTIBIOTIC” (priority 2007, published 2010).
